US8921398B2 (Boehringer Ingelheim International GmbH, priority 2011, dated 2014)

Target: T1, human GPR119 (Homo sapiens, UniProt Q8TDV5)
T1 construct: expression vector for human GPR119 cDNA (Acc. No. NP_848566); expressed in transfected cells
T1 sequence (Q8TDV5 1-335): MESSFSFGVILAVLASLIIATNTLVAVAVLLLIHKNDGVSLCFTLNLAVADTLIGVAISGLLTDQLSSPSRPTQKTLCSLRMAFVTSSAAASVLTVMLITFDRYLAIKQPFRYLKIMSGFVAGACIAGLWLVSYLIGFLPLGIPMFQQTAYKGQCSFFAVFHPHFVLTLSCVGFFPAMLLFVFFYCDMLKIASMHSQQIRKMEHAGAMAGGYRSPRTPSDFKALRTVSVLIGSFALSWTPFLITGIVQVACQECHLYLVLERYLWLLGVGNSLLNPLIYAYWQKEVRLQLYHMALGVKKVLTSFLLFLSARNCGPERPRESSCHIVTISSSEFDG
Assay: AlphaScreen cAMP assay in MIN6 cells stably transfected with human GPR119
Type: cell-based
Conditions: Min-6/hGPR119 cells, 45 minutes incubation at room temperature
Experimental: The compounds of formula I according to the invention modulate the activity of the G-protein-coupled receptor GPR119. The effect of the compounds on the activation of GPR119 and on the stimulation of intracellular cAMP concentration is determined using the AlphaScreen cAMP Assay Kit (Cat.No.#6760625R) made by PerkinElmer.
MIN6 cells [Miyazaki J et al. Endocrinology. 1990 July; 127(1):126-32] are stably transfected with an expression vector for human GPR119 cDNA (Acc. No. NP_848566). Min-6/hGPR119 cells are cultured in DMEM, 10% FBS, 50 μM β-mercaptoethanol, 0.3 mg/mL Geniticin, 2 mM GlutaMAX at 37° C. 5% CO2. For the assay, the cells are seeded in Optiplates (white, 384-well, 160W-barcoded, TC, sterile with lid, Cat.No.#6007688 (Perkin Elmer); 10000 cells/well; 50 μl). The plates covered with lids are then incubated for 24 hours at 37° C./5% CO2. After the medium is aspirated from the wells completely, 10 μl of the test compound are added, the compounds are diluted using stimulating buffer (140 mM NaCl, 3.6 mM KCl, 0.5 mM NaH2PO4, 0.5 mM MgSO4, 1.5 mM CaCl2, 10 mM Hepes, 5 mM NaHCO3; pH 7.4. 0.5 mM IBMX and 0.1% BSA, the final DMSO concentration is 1%). After 45 minutes incubation at room temperature (approx. 20° C.), the cAMP concentrations are determined using the AlphaScreen cAMP Assay Kit (Cat.No.#6760625R from PerkinElmer).

Row | SMILES | EC50 [nM]
1 | Cc1cnc(N2CCC(N(C(=O)c3ccc(-c4cnco4)nc3)C3CC3)CC2)nc1 [Example 41, N-Cyclopropyl-N-[1-(5-methyl-pyrimidin-2-yl)-piperidin-4-yl]-6-oxazol-5-yl-nicotinamide] | 159
2 | Cc1cnc(N2CCC(N(C(=O)c3ccc(-c4cnco4)nc3)C3CC3)CC2)cn1 [Example 42, N-Cyclopropyl-N-[1-(5-methyl-pyrazin-2-yl)-piperidin-4-yl]-6-oxazol-5-yl-nicotinamide] | 231
